Experimental data: patent publication US4997847A, “Biologically active compounds” (Smith Kline & French Laboratories Limited, priority 1987, dated 1991)

Target: T1, TXA2 receptors (Homo sapiens, UniProt P21731)
T1 construct: to Washed Human Platelets; endogenous in cells; host or cells: washed human platelets
T1 sequence (P21731 1-343): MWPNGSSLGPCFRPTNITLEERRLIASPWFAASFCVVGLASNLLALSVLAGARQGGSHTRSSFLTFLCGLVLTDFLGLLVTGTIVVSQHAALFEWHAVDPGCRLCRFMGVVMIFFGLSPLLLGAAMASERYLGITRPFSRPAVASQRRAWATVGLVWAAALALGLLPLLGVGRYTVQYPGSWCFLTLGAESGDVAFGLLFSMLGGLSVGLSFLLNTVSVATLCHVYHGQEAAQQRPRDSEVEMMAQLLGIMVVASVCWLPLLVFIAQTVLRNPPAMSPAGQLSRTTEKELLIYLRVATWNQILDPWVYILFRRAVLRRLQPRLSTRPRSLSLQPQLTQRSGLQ
Test: Human platelet binding assay: inhibition of [^125 I]PTA-OH binding to washed human platelets
Conditions: [^125 I]PTA-OH as receptor ligand, 50% inhibition of specific binding
Text: As indicated above, compounds of the formula (I) have biological activity that is indicative of an ability to antagonise TXA2 receptors.
The platelet binding assay used was essentially the method described by Mais et al, J. Pharm. Exp. Ther., 1985, 235(3), 729-734 where [^125 I]PTA-OH was used as the receptor ligand.
The IC50 values represent the concentration which produces a 50% inhibition of specific [^125 I]PTA-OH binding.
The activities of the compounds of the present invention in the assay are described in Example 33.
Inhibition of [^125 I]PTA-OH Binding
to Washed Human Platelets

IC50 | SMILES
290 nM | O=C(O)CCCCCCCNS(=O)(=O)c1ccccc1 [Example 2, 8-(Benzenesulphonamido)octanoic Acid]
110 nM | O=C(O)CCCCCCCNS(=O)(=O)c1ccc([N+](=O)[O-])cc1 [Example 15, 8-(4-Nitrobenzenesulphonamido)octanoic Acid]
61000 nM | O=C(O)CCCCCNS(=O)(=O)c1ccccc1 [Example 4, 6-(Benzenesulphonamido)hexanoic Acid]
1600 nM | O=C(O)CCC/C=C\CNS(=O)(=O)c1ccc(Cl)cc1 [Example 9, (Z)-7-(4-Chlorobenzenesulphonamido)hept-5-enoic Acid]
2300 nM | O=C(O)CCCCCCNS(=O)(=O)c1ccccc1 [Example 1, 7-(Benzenesulphonamido)heptanoic Acid]
30 nM | O=C(O)CCCCCCCNS(=O)(=O)c1ccc(Cl)cc1 [Example 3, 8-(4-Chlorobenzenesulphonamido)octanoic Acid]
300 nM | COc1ccc(S(=O)(=O)NCCCCCCCC(=O)O)cc1 [Example 17, 8-(4-Methoxybenzenesulphonamido)octanoic Acid]
60 nM | O=C(O)CCCCCCCCCNS(=O)(=O)c1ccc(Cl)cc1 [Example 24, 10-(4-Chlorobenzenesulphonamido)decanoic Acid]
40 nM | O=C(O)CCCCCCCNS(=O)(=O)c1ccc(Cl)s1 [Example 29, 8-(5-Chloro-2-thienylsulphonamido)octanoic Acid]
360 nM | CC(C)(CCCCCCCNS(=O)(=O)c1ccc(Cl)cc1)C(=O)O [Example 30, 9-(4-Chlorophenylsulphonamido)-2,2-dimethylnonanoic Acid]
330 nM | CC(C)(CCCCCNS(=O)(=O)c1ccc(Cl)cc1)C(=O)O [Example 31, 7-(4-Chlorophenylsulphonamido)-2,2-dimethylheptanoic Acid]
40 nM | O=C(O)CCCCCCCCNS(=O)(=O)c1ccc(Br)cc1 [Example 26, 9-(4-Bromobenzenesulphonamido)nonanoic Acid]
1900 nM | O=C(O)CCCCCCCCCCNS(=O)(=O)c1cccc(Cl)c1 [Example 20, 11-(3-Chlorobenzenesulphonamido)undecanoic Acid]
280 nM | O=C(O)CCCCCCCCNS(=O)(=O)c1ccccc1 [Example 7, 9-(Benzenesulphonamido)nonanoic Acid]
20 nM | O=C(O)CCCCCCCNS(=O)(=O)c1ccc(Br)cc1 [Example 16, 8-(4-Bromobenzenesulphonamido)octanoic Acid]
250 nM | O=C(O)CCCCCCCCNS(=O)(=O)c1cccc(Cl)c1 [Example 23, 9-(3-Chlorobenzenesulphonamido)nonanoic Acid]
220 nM | O=C(O)CCCCCCCNS(=O)(=O)c1ccc(F)cc1 [Example 25, 8(4-Fluorobenzenesulphonamido)octanoic Acid]
70 nM | O=C(O)CCCCCCCNS(=O)(=O)c1ccc(Cl)c(Cl)c1 [Example 18, 8-(3,4-Dichlorobenzenesulphonamido)octanoic Acid]
270 nM | O=C(O)CCCCCCNS(=O)(=O)c1ccc(Cl)cc1 [Example 13, 7-(4-Chlorobenzenesulphonamido)heptanoic Acid]
75 nM | Cc1ccc(S(=O)(=O)NCCCCCCCC(=O)O)cc1 [Example 21, 8-(4-tolylsulphonamido)octanoic acid]
5400 nM | O=C(O)CCCC#CCNS(=O)(=O)c1ccc(Cl)cc1 [Example 8, 7-(4-Chlorobenzenesulphonamido)hept-5-ynoic Acid]
600 nM | O=C(O)CCCCCCCCCCNS(=O)(=O)c1ccc(Cl)cc1 [Example 19, 11-(4-Chlorobenzenesulphonamido)undecanoic Acid]
160 nM | O=C(O)CCCCCCCNS(=O)(=O)c1cccc(Cl)c1 [Example 14, 8-(3-Chlorobenzenesulphonamido)octanoic Acid]
7000 nM | O=C(O)CCCCCCCCCCCNS(=O)(=O)c1ccc(Cl)cc1 [Example 11, 12-(4-Chlorobenzenesulphonamido)-dedecanoic Acid]
650 nM | O=C(O)CCCCCCCNS(=O)(=O)c1cc(Cl)sc1Cl [Example 32, 8-(2,5-Dichloro-3-thienylsulphonamido)octanoic Acid]
150 nM | CC(C)(CCCCCCNS(=O)(=O)c1ccc(Cl)cc1)C(=O)O [Example 5, 8-(4-Chlorobenzenesulphonamido)-2,2-dimethyloctanoic Acid]
470 nM | CC(C)(CCCCCCCCNS(=O)(=O)c1ccc(Cl)cc1)C(=O)O [Example 10, 2,2-Dimethyl-10-(4-chlorobenzenesulphonamido)decanoic Acid]
18 nM | O=C(O)CCCCCCCCNS(=O)(=O)c1ccc(Cl)cc1 [Example 6, 9-(4-Chlorobenzenesulphonamido)nonanoic Acid]
600 nM | CC(C)(CCCCCNS(=O)(=O)c1ccc(Cl)cc1)CC(=O)O [Example 12, 8-(4-Chlorobenzenesulphonamido)-3,3-dimethyloctanoic Acid]
